Laboratory results as given in patent US7342016B2, “Farnesyl protein transferase inhibitors as antitumor agents” (Schering Corporation, priority 2000, dated 2008).
Values joined by “and” are separate entries in the source; they are usually repeats but may differ in a detail not shown here. Equal entries are not always repeated.

Legend:
Test in all cases: In vivo anti-tumor study, s.c. tumor in athymic nu/nu female mice, percent inhibition of tumor growth
[1] = test system: mouse fibroblasts transformed with H-Ras; conditions: po, x2
Experimental: (§1) Various tumor cells (5×10^5 to 8×10^6) were innoculated subcutaneously into the flank of 5-6 week old athymic nu/nu female mice. Three tumor cell models were used: mouse fibroblasts transformed with H-Ras; HTB-177 human non small cell lung cancer cells or LOX human melanoma cells. Animals were treated with beta cyclodextran vehicle only or compounds in vehicle twice a day (BID) or once a day (QD) for 7 days per week for 1 (×1), 2 (×2) or 3 (×3) weeks. The percent inhibition of tumor growth relative to vehicle controls were determined by tumor measurements.

[2] = test system: LOX human melanoma cells; conditions: po, BID, x1
Experimental: as §1

[3] = test system: HTB-177 human non small cell lung cancer cells; conditions: po, x3
Experimental: as §1

Q: Which “Average % Tumor Inhibition” value ([1]; 6.6 MPK, BID) does the source give for `Cc1nccn1CC1=Cc2cccnc2C(N2CCN(C(=O)Nc3ccc(C#N)cc3)CC2)c2ccc(Cl)cc21` (stereo not shown) [(372)] here?
A: 19%

Q: And the “Average % Tumor Inhibition” value ([1]; 10 MPK, BID)?
A: 70%

Q: What about the “Average % Tumor Inhibition” value ([1]; 20 MPK, BID) of the same compound?
A: 59%

Q: And the “Average % Tumor Inhibition” value ([1]; 20 MPK, QD)?
A: 55%

Q: And the “Average % Tumor Inhibition” value ([1]; 40 MPK, BID)?
A: 92%

Q: And the “Average % Tumor Inhibition” value ([1]; 60 MPK, BID)?
A: 98%

Q: And the “Average % Tumor Inhibition” value ([1]; 80 MPK, QD)?
A: 91%

Q: What about the “Average % Tumor Inhibition” value ([2]; 15 MPK) of the same compound?
A: 20.9%

Q: And the “Average % Tumor Inhibition” value ([2]; 30 MPK)?
A: 54.8%

Q: What about the “Average % Tumor Inhibition” value ([2]; 60 MPK) of the same compound?
A: 90.3%

Q: What about the “Average % Tumor Inhibition” value ([3]; 20 MPK, BID) of the same compound?
A: 43% and 47%

Q: And the “Average % Tumor Inhibition” value ([3]; 40 MPK, BID)?
A: 79%

Q: What about the “Average % Tumor Inhibition” value ([3]; 40 MPK, QD) of the same compound?
A: 11%

Q: What about the “Average % Tumor Inhibition” value ([3]; 60 MPK, BID) of the same compound?
A: 87%

Q: What about the “Average % Tumor Inhibition” value ([3]; 80 MPK, BID) of the same compound?
A: 96%

Q: And the “Average % Tumor Inhibition” value ([3]; 120 MPK, QD)?
A: 54%
